Results from patent US10983112B2, “Bile acid biomarkers for Niemann-Pick diseases, methods and uses therefor” (Washington University, priority 2014, dated 2021).

Columns and labels:
[1] = rat; cited from earlier work
Hep G2 cells = test: Biosynthesis of bile acids from cholestane-3β,5α,6β-triol in Hep G2 cells; format: in vitro ADME, human; details: 2.5 ng/mL, 24 h, conditioned medium
Procedure: To explore the biosynthetic route of the bile acids, the human hepatoblastoma-derived cell line Hep G2 was incubated with cholestane-3β,5α,6β-triol and 7,7,22,22,22-d4-cholestane-3β,5α,6β-triol. Hep G2 cells (1×10^6 cells/well) were seeded in a 6-well plate in triplicate and maintained in Dulbecco's modified Eagle's medium supplemented with 15% fetal calf serum and 100 U of penicillin G/mL and […] streptomycin sulfate at 37° C. in a humidified atmosphere with 5% CO2. Hep G2 cells were treated when they were 80% confluent. For the treatment, 100× stock solutions were made in DMSO for triol and d4-triol. DMSO concentration never exceeded 1% in the culture medium. […] The supernatant was transferred to a glass HPLC insert and analyzed immediately after preparation by the LC-MS/MS.
LC-MS/MS analysis was conducted on a Shimadzu (Columbia, Md.) Prominence UFLC system coupled with an Applied Biosystems/MDS Sciex (Ontario, Canada) 4000QTRAP mass spectrometer using multiple reaction monitoring (MRM). […] Data were acquired and analyzed by Analyst software (version 1.5.2). […] FIG. 40 depicts synthetic bile acid A detected by MRM transition m/z 407→407. FIG. 41 depicts bile acid A generated from cholestane-3β,5α,6β-triol in HepG2 cells and detected by MRM transition m/z 407→407. […]

[2] = Sample stability of bile acid B in dried blood spots, whole blood, processed samples, stock and working solutions; format: physicochemical
Procedure: Sample stability. The storage stability of dried blood spots and processed sample stabilities in the autosampler were determined at the LQC and HQC concentration levels (n=3). Storage stability of bile acid B in dried blood spots was tested at −20° C. and room temperature for 66 days, and at 37° C. for 90 hours. In the autosampler, stability was tested over seven days by injecting the first batch of the validation samples. The LQC and HQC in whole blood were placed on benchtop at room temperature for 27 hours and then spotted onto newborn screening cards to examine stability of bile acid B in whole blood. Stock solution stability was established by quantification of samples from dilution of two stock solutions that have been stored at −20° C. for 91 days and at room temperature on the bench for 22 hours, respectively, to the final solution (500 ng/mL in water). The storage stability of internal standard working solution was tested at room temperature for 12 days. A fresh standard curve was established each time. Bile acid B was stable in dried blood spots in newborn screening cards for up to 66 days at room temperature storage.
Stability in whole blood, dried blood spots, processed samples, stock and working solutions. The allowable time bile acid B spiked whole blood sample can remain at room temperature prior to spoiling on a newborn screening card was determined with LQC and HQC blood samples, which were remained at room temperature for 27 hours prior to spotting. Three replicates were assessed and the accuracy (within ±4.5% RE) and precision (<7.5% CV) were within the quality control acceptance criteria stated above. Bile acid B is therefore considered stable in whole blood for 27 hours prior to spotting.
The stability of bile acid B in dried blood spots on the newborn screening cards stored at room temperature and −20° C. for 66 days and at 37° C. for 90 hours was assessed by comparisons of three replicates of stored LQC and HQC against freshly prepared calibration standards and QC samples. […] Processed sample stability was assessed by re-injection of LQC and HQC together with calibration curve from one accuracy/precision run after storage in the autosampler at 4° C. for 7 days.
Stock solution stability of bile acid B and internal standard in acetonitrile-water (1:1) was established for 22 hours at room temperature. The internal standard in aqueous working solution (1% sodium dodecyl sulfate (SDS) and 50 mM trisodium citrate at pH 12) was stable for 12 days at room temperature.

Row | SMILES | metabolite of cholestane-3β,5α,6β-triol [1] | formation from cholestane-3β,5α,6β-triol or d4-triol (Hep G2 cells) | stock solution stability ([2]; acetonitrile-water (1:1), room temperature) [h] | processed sample stability ([2]; autosampler at 4° C. for 7 days) | stability in dried blood spots on newborn screening cards ([2]; room temperature) | stability in whole blood prior to spotting ([2]; room temperature, LQC and HQC) [h] | stability in dried blood spots on newborn screening cards ([2]; room temperature, listed as bile acid B) | stability in dried blood spots on newborn screening cards ([2]; shipping conditions (37° C.)) [h] | stability in dried blood spots on newborn screening cards ([2]; −20° C.)
1 | C[C@H](CCC(=O)O)[C@H]1CCC2C3C[C@@H](O)[C@@]4(O)C[C@@H](O)CC[C@]4(C)C3CC[C@@]21C (stereo partly drawn) [Bile acid A, 3β,5α,6β-trihydroxycholanic acid] | major metabolite | – | – | – | – | – | – | – | –
2 | C[C@H](CCC(=O)NCC(=O)O)[C@H]1CC[C@H]2[C@@H]3C[C@@H](O)[C@@]4(O)C[C@@H](O)CC[C@]4(C)[C@H]3CC[C@]12C [Bile acid B, N-(3β,5α,6β-trihydroxy-cholan-24-oyl)glycine] | – | No bile acid B was found | 22 | Stability was demonstrated | up to 66 days | 27 | at least 66 days | 90 | at least 66 days
